Measured values reported in paper PMC12474180 (Toxins, 2025).
Where two headings read alike, the source gives them in different places.

What was measured:
[1] = test system: MlrA
[2] = test system: m6-ΔmlrA
[3] = test system: m6-ΔmlrB
[4] = test system: m6-ΔmlrC
[5] = test system: MlrB
[6] = test system: MlrC
[7] = test system: m6-ΔmlrD
[8] = test system: MlrC; experiment: purified recombinant MBP-tagged MlrC (0.05 mg/L purified enzymes); conditions: Sphingopyxis sp. m6, 30 °C, up to 6 h
[9] = test system: MlrA; experiment: purified recombinant MBP-tagged MlrA (0.05 mg/L purified enzymes); conditions: Sphingopyxis sp. m6, 30 °C, up to 30 min
[10] = Sphingopyxis sp. m6 (wild-type) cells in MSM; conditions: Sphingopyxis sp. m6, 30 °C, up to 6 h
[11] = test system: MlrB; experiment: purified recombinant MBP-tagged MlrB (0.05 mg/L purified enzymes); conditions: Sphingopyxis sp. m6, 30 °C, up to 6 h
[12] = test system: MlrC; conditions: Sphingomonas ACM-3962 and Sphingopyxis sp. C-1; cited from earlier work
[13] = test system: MlrC; experiment: recombinant MlrC; conditions: cited from earlier work
[14] = test system: MlrB; conditions: cited from earlier work
[15] = test system: MlrA; conditions: cited from earlier work
[16] = knockout mutant m6-ΔmlrD cells in MSM; conditions: Sphingopyxis sp. m6, 30 °C, up to 6 h
[17] = knockout mutant m6-ΔmlrC cells in MSM; conditions: Sphingopyxis sp. m6, 30 °C, up to 6 h
[18] = knockout mutant m6-ΔmlrB cells in MSM; conditions: Sphingopyxis sp. m6, 30 °C, up to 6 h
[19] = test system: MlrA, MlrB, MlrC; experiment: Mlr enzymes of Sphingomonas sp. ACM-3962; conditions: cited from earlier work

## COC(Cc1ccccc1)C(C)C=C(C)C=CC(N)C(C)C(=O)O (stereo not shown) [Adda, 3-amino-9-methoxy-2,6,8-trimethyl-10-phenyl-deca-4,6-dienoic acid]
[1]
  Degrading ability of MlrA: -
[2]
  degrading ability of the strain: can all degrade
[3]
  degrading ability of the strain: can all degrade
[4]
  degrading ability of the strain: can all degrade
[5]
  Degrading ability of MlrB: -
[6]
  Degrading ability of MlrC: -
[7]
  degrading ability of the strain: can all degrade

## Adda-Glu-Mdha-Ala
[8]
  cleaved bond: Adda-Glu
[9]
  not cleaved: can’t degrade
[10]
  cleaved bond: Adda-Glu
[11]
  not cleaved: can’t degrade
[12]
  fragment found: Adda

## Adda-Glu-Mdha-Ala-Leu-MeAsp-Arg
[8]
  cleaved bond: Adda-Glu
[13]
  fragment found: hexapeptide compound
[9]
  not cleaved: can’t degrade
[10]
  cleaved bond: Ala-Leu
[14]
  fragment found: tetrapeptide (Adda-Glu-Mdha-Ala)
[11]
  cleaved bond: Ala-Leu
[12]
  fragment found: Adda

## cyclo-(Ala-Leu-MeAsp-Arg-Adda-Glu-Mdha)
[15]
  fragment found: linearized MC-LR (Adda-Glu-Mdha-Ala-Leu-MeAsp-Arg), first_seen
[8]
  not cleaved: can’t degrade
[16]
  fragment found: linearized MC-LR, within 1 h and tetrapeptide and Adda
[9]
  cleaved bond: Arg-Adda
[10]
  cleaved bond: Arg-Adda, first_seen
[11]
  not cleaved: can’t degrade
[17]
  fragment found: linearized MC-LR, within 1 h and tetrapeptide and Adda
[18]
  fragment found: linearized MC-LR, within 1 h and tetrapeptide, minor and Adda
[19]
  fragment found: linearized MC-LR and tetrapeptide and Adda
